Columns and labels:
ASIC3 [1] = conditions: ref [16],[17]; cited from earlier work
Description: Indeed, several neuropeptides modulate ASICs by directly binding to these ionotropic receptors. For example, dynorphin opioid neuropeptides bind to the acidic pocket of ASIC1a and shift steady-state desensitization curves to higher proton concentrations. RFamide neuropeptides bind to the central vestibule of ASIC3 [14] and delay its desensitization.

ASIC1a = conditions: ref [18], cited from earlier work
Description: Indeed, several neuropeptides modulate ASICs by directly binding to these ionotropic receptors. For example, dynorphin opioid neuropeptides bind to the acidic pocket of ASIC1a and shift steady-state desensitization curves to higher proton concentrations. RFamide neuropeptides bind to the central vestibule of ASIC3 [14] and delay its desensitization. […] Strikingly, it was reported that the apparent nocistatin affi ...

ASIC3 [2] = conditions: cited from earlier work
Protocol: (§1) Indeed, several neuropeptides modulate ASICs by directly binding to these ionotropic receptors. For example, dynorphin opioid neuropeptides bind to the acidic pocket of ASIC1a and shift steady-state desensitization curves to higher proton concentrations. RFamide neuropeptides bind to the central vestibule of ASIC3 [14] and delay its desensitization. […] But ASIC2a has a low proton sensitivity with an EC50 of ~4.0 [21, 22]. Because 1 mM noci ...

ASIC1b = conditions: cited from earlier work
Protocol: as §1

ASIC2a = conditions: ref [18], cited from earlier work
Protocol: as §1

rat ASIC1a [3] = experiment: Whole cell patch-clamp in transfected CHO cells (ASIC1a activation); type: cell-based
Protocol: Chinese hamster ovary (CHO) cells were maintained in Ham’s Nutrient Mixture F12 (Sigma, St. Louis, MI, USA) together with 10% fetal bovine serum (FBS; Sigma, St. Louis, MI, USA) and passaged regularly. Cells were seeded and transfected after 1 day with 1 µg rat ASIC1a cDNA in pCDNA3.1 and 1 µg GFP using X-treme GENE (Sigma, St. Louis, MI, USA). Cells were patched 48 h after transfection.
We performed whole cell patch-clamp measurements on cultured CHO cells, using patch pipettes of 4–6 MΩ resistance filled with (in mM) 10 NaCl, 121 KCl, 2 MgCl2, 5 EGTA, 10 HEPES, pH 7.25. The bath solution contained (in mM) 128 NaCl, 5.4 KCl, 1 MgCl2, 2 CaCl2, 10 HEPES, pH 7.4 with NaOH. Osmolarity was adjusted with glucose to 280 mOsmol/L for the pipette solution and to 290 mOsmol/L for the extracellular solution. Data were acquired using an Axon Digidata 1440A and an Axon Axopatch 200B and recorded and analyzed using the pClamp Software (Axon Instruments, Molecular Devices, Sunnyvale, San Jose, CA, USA).
(§2) Rat nocistatin ([…]) has been purchased from ProteoGenix (Schiltigheim, France) with a guaranteed purity of >95%. It was delivered as a lyophilized powder. For measurements with oocytes, it was dissolved in standard bath solution (pH 7.4) to obtain a concentration of 1 mM. This solution was further diluted to 0.5 mM; for one half of this solution, the pH was adjusted to pH 7.4, for the other half it was not adjusted. For measurements with CHO cells, the peptide was dissolved in bath solution to obtain a concentration of 0.25 mM; the pH was adjusted to 7.4. The solutions were freshly prepared before use.
(A) current trace of a CHO cell transfected with rASIC1a cDNA stimulated with pH 6.0 (black bar) or with rNS (0.25 mM, pH 7.4, green bar) for 10 s. Conditioning pH 7.4. This trace is representative for 6 similar measurements. (B) as in A, ASIC1a-expressing CHO cell was stimulated repetitively with pH 6.0 for 10 s (black bars). rNS (0.25 mM, pH 7.4, green bar) was applied for 10 s prior to pH 6.0 stimulation. This trace is representative for 3 similar measurements.

rat ASIC1a [4] = experiment: Two electrode voltage-clamp in Xenopus oocytes (ASIC1a activation); type: cell-based
Protocol: ASIC1a cRNA synthesis and preparation of oocytes was described previously. Briefly, oocytes were removed from anesthetized frogs; frogs were killed after final oocyte collection by decapitation. Animal care and surgery of frogs were conducted under protocols approved by the State Office for Nature, Environment, and Consumer Protection (LANUV) of North Rhine-Westphalia (NRW), Germany, and were performed in accordance with LANUV NRW guidelines. ASIC1a cRNA (0.016 ng) was injected into stage V or VI oocytes. Oocytes were kept in OR-2 medium (in mM, 82 NaCl, 2.5 KCl, 1 Na2HPO4, 4-(2-hydroxyethyl)-1-piperazineethanesulfonic acid (HEPES), 1.0 MgCl2, 1 CaCl2, and 0.5 mg/mL polyvinylpyrrolidone) at 19 °C. Two electrode voltage-clamp measurements were performed as described previously. Whole cell currents were recorded 24–48 h post injection at room temperature (20–25 °C) with a TurboTec 03X amplifier (npi Electronic, Tamm, Germany). Fast solution exchange was performed by a programmable pipetting robot (screening tool; npi Electronic). Data acquisition was controlled using CellWorks 5.1.1 (npi Electronic). Data were filtered at 20 Hz and acquired at 1 kHz. Holding potential was −70 mV. Standard bath solution for two electrode voltage-clamp measurements contained (in mM) 140 NaCl, 1.8 CaCl2, 1 MgCl2, and 10 HEPES.
as §2
Similar to the previous study, we expressed rat ASIC1a in Xenopus laevis oocytes and performed two electrode voltage-clamp to study activation of ASIC1a by nocistatin.
Current trace recorded from a rASIC1a-expressing oocyte stimulated repetitively with pH 6.0 for 20 s (black bars); conditioning pH 7.4 was applied for 60 s. Rat nocistatin (rNS, 0.5 mM) in pH-unadjusted (pH 5.1, red bar) und pH-adjusted (pH 7.4, green bar) conditioning solution was applied for 20 s.

[5] = pH of bath solution after dissolving nocistatin; type: physicochemical; conditions: standard bath solution, 10 mM HEPES, initial pH 7.4, standard pH meter
Protocol: as §2
We dissolved nocistatin in bath solution containing 10 mM HEPES with a pH of 7.4 (see Methods); this is the same buffer at the same concentration that was previously used in the study reporting activation of ASICs by nocistatin [18]. Nocistatin dissolved readily, but, as expected for a highly acidic peptide with a pI of 3.7, the pH of the solution dropped to pH values between 6.7 and 4.15 when we dissolved nocistatin to obtain a final concentration between 0.25 and 1 mM (Table 1). We titrated nocistatin-containing solutions using NaOH until we reached again neutral pH of 7.4. For comparison, we also tested a solution containing 0.5 mM nocistatin without adjustment of the pH value.

[6] = test system: FMRFamide-activated Na^+ channel (FaNaC); conditions: cited from earlier work
Protocol: For example, some DEG/ENaCs from invertebrates are directly gated by neuropeptides. The FMRFamide-activated Na^+ channel (FaNaC) from the snail Helix is activated by the neuropeptide FMRFamide with an EC50 of ~2 μM [9], Hydra Na^+ channels (HyNaCs) are activated by Hydra-RFamides with an EC50 of 0.05–10 μM [10], and the myoinhibitory peptide-gated ion channel (MGIC) from the annelid Platynereis is activated by myoinhibitory peptides with an EC50 of 1–5 μM [11]. Therefore, neuropeptides are attractive candidates also for ASIC agonists. Of note, these peptide-gated ion channels desensitize ...

[7] = 1 mM nocistatin vs pH 5.5, ref [18]

endomorphin-1
effect on ASIC3 desensitization (ASIC3 [1]): slow desensitization of ASIC3

MPRVRSVVQARDAEPEADAEPVADEADEVEQKQLQ [nocistatin, endogenous neuropeptide with 35 amino acids; rat nocistatin purchased from ProteoGenix, purity >95%]
direct agonism (ASIC1a; ASIC1a): direct agonist
desensitization kinetics of nocistatin-induced currents (ASIC1a; compared with proton-induced currents): virtually identical to the kinetics of proton-induced currents
EC50 (ASIC1a; read-out: EC50 (affinity of nocistatin for ASIC1a)): ~250 µM
current amplitude, 1 mM nocistatin compared with pH 5.5 (ASIC3 [2]; [7]): similar
activation by 1 mM nocistatin (ASIC3 [2]; 1 mM, ref [18]): activated
direct agonism (ASIC3 [2]; ref [18]): direct agonist
current amplitude, 1 mM nocistatin compared with pH 5.5 (ASIC1b; [7]): similar
activation by 1 mM nocistatin (ASIC1b; 1 mM, ref [18]): activated
direct agonism (ASIC1b; ref [18]): direct agonist
current amplitude, 1 mM nocistatin compared with acidification from 7.4 to 5.5 (ASIC2a; 1 mM nocistatin vs acidification from 7.4 to 5.5, ASIC2a): eight times larger current amplitudes
activation by 1 mM nocistatin (ASIC2a; 1 mM, ASIC2a): activated
direct agonism (ASIC2a; ASIC2): direct agonist
ASIC1a current on pH 6.0 application following nocistatin (rat ASIC1a [3]; 0.25 mM nocistatin pH 7.4 for 10 s, then pH 6.0 for 10 s, representative for 3 measurements): induced canonical ASIC1a currents
current elicited by nocistatin at neutral pH (rat ASIC1a [3]; 0.25 mM, pH 7.4, 10 s, conditioning pH 7.4, representative for 6 measurements): elicited no current
direct activation of ASIC1a (summary) (rat ASIC1a [3]; CHO cells, text says up to 500 μM nocistatin): did not directly activate ASIC1a
ASIC1a current on pH 6.0 application immediately after nocistatin at pH 5.1 (desensitization) (rat ASIC1a [4]; 0.5 mM nocistatin pH 5.1, then pH 6.0, holding potential −70 mV, representative for 5 measurements): did not elicit currents, indicating that ASIC1a was completely desensitized
ASIC current on pH 6.0 application immediately after nocistatin at pH 7.4 (desensitization) (rat ASIC1a [4]; 0.5 mM nocistatin pH 7.4, then pH 6.0, holding potential −70 mV, representative for 5 measurements): elicited ASIC currents with a full amplitude
ASIC1a current elicited by nocistatin, pH not adjusted (rat ASIC1a [4]; 0.5 mM, pH 5.1, 20 s, conditioning pH 7.4, holding potential −70 mV, representative for 5 measurements): elicited ASIC1a currents with an amplitude and kinetics similar to the currents elicited by pH 6.0
ASIC1a current elicited by nocistatin, pH adjusted (rat ASIC1a [4]; 0.5 mM, pH adjusted to 7.4, 20 s, holding potential −70 mV, representative for 5 measurements): elicited no ASIC1a currents
direct activation of ASIC1a (summary) (rat ASIC1a [4]; up to 500 μM nocistatin, Xenopus oocytes): did not directly activate ASIC1a
measured pH value after dissolving nocistatin ([5]; 0.25 mM nocistatin): 6.7
measured pH value after dissolving nocistatin ([5]; 0.5 mM nocistatin): 5.1
measured pH value after dissolving nocistatin ([5]; 1.0 mM nocistatin): 4.15

FMRFamide
desensitization time constant ([6]; desensitize only partially and slowly, ref [9],[10],[11]): > 10 s
EC50 ([6]; ref [9]): ~2000 nM

endomorphin-2
effect on ASIC3 desensitization (ASIC3 [1]): slow desensitization of ASIC3
